{"source": "paper PMC3640384", "about": "“HPN, a Synthetic Analogue of Bromophenol from Red Alga Rhodomela confervoides: Synthesis and Anti-Diabetic Effects in C57BL/KsJ-db/db Mice” (Marine Drugs, 2013)", "molecular_target": "T1, protein tyrosine phosphatase 1B (PTP1B) (Homo sapiens, UniProt P18031)", "T1 construct": "gene PTPN1; Recombinant human GST-PTP1B (hGST-PTP1B)", "T1 sequence (P18031 1-435)": "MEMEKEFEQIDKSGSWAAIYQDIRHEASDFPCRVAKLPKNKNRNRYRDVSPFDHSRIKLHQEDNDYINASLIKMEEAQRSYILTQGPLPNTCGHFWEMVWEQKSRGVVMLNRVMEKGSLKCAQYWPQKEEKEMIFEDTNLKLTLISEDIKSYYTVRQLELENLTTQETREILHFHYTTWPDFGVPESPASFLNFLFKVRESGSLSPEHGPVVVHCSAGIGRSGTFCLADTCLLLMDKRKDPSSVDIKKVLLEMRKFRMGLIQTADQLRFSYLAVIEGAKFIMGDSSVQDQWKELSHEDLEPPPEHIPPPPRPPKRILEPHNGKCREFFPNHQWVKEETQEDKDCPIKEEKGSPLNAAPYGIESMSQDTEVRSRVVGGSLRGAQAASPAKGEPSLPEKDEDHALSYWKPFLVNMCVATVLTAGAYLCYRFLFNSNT", "assay": "pNPP hydrolysis assay at […] nm with recombinant GST-PTP1B", "assay_type": "biochemical", "note": "pIC50: −log10 of the molar value.", "data": [{"smiles": "CC(C)OCc1cc(O)c(O)c(Br)c1Cc1cc(O)c(O)c(Br)c1Br", "note": "[HPN, 3,4-dibromo-5-(2-bromo-3,4-dihydroxy-6-(isopropoxymethyl)benzyl)benzene-1,2-diol]", "values": [{"measurement": "pIC50", "value": 6.20}]}]}
